Experimental data: ChEMBL document CHEMBL4330061, “Antitumoral activity of quinoxaline derivatives: A systematic review” (Eur J Med Chem, 2019)
pIC50: −log10 of the molar value.

How the values were obtained:
MCF7 = assay: Antiproliferative activity against human MCF7 cells after 48 hrs by MTT assay; type: functional, cell-based; details: MCF7, 48 h
A549 = assay: Antiproliferative activity against human A549 cells after 48 hrs by MTT assay; type: functional, cell-based; details: A549, 48 h

pIC50 (MCF7) | pIC50 (A549) | SMILES
5.72 | 5.52 | COc1ccc(C2C3CCc4ccc(OC)cc4C3=NN2c2nc3nc4ccccc4nc3s2)cc1 (centres undefined)
5.63 | 5.37 | C#Cc1cccc(Nc2ncnc3cc(OCCOC)c(OCCOC)cc23)c1 [ERLOTINIB]
